The values below come from ChEMBL document CHEMBL1157759, “Discovery of GS-9131: Design, synthesis and optimization of amidate prodrugs of the novel nucleoside phosphonate HIV reverse transcriptase (RT) inhibitor GS-9148” (Bioorg Med Chem, 2010).

Data set [1] can be described thus: Clearance in iv dosed Beagle dog after 24 hrs. The conditions noted are these: in vivo.
Data set [2] is described as follows: Oral bioavailability in Beagle dog. The following applies: in vivo.
Data set [3] is described as follows: Half life in dog intestine S9 fraction at 2 uM by LC/MS/MS analysis. The following applies: for half-life at 2 µM: intestine S9 fraction, t1/2.
Data set [4] has as its system Human immunodeficiency virus 1. As to the kind of experiment: Antiviral activity against HIV1 3B infected in human MT2 cells assessed as inhibition of virus-induced cytopathic effect after 5 days by XTT assay. Type of data set: functional, organism-based. On the technique in general: Damage to the host cells serves as the signal in cytopathic effect assays.
In another data set the test system is PBMC. As to the kind of experiment: Metabolic stability in cathepsin A-overexpressing human PBMC assessed as compound degradation per ug of protein at 10 uM after 120 mins by scintillation counting. The conditions noted are these: 2 h, 30 µM.
The nature of data set [5]: Bioavailability in iv dosed Beagle dog. The following applies: in vivo.
Data set [6] in a line: Half life in dog hepatocytes at 2 uM by LC/MS/MS analysis. The following applies: for t1/2: 2 µM.
Data set [7] is described as follows: Hydrolytic stability assessed as compound degradation per ug of protein at 10 uM after 90 mins by scintillation counting in presence of human recombinant cathepsin A. The conditions noted are these: 1.5 h.
The species entered for a further data set is Homo sapiens. The experiment in a line: in vitro. The conditions noted are these: plasma.
Data set [8] is described as follows: Cytotoxicity against human MT2 cells after 5 days by XTT assay.
A short description of data set [9]: Metabolic stability in dog plasma assessed as compound remaining after 60 mins.
Data set [10] in a line: Half life in human intestine S9 fraction at 2 uM by LC/MS/MS analysis.
Data set [11] in a line: Half life in human hepatocytes at 2 uM by LC/MS/MS analysis. The conditions noted are these: t1/2.
The nature of data set [12]: Cytotoxicity against human HepG2 cells assessed as inhibition of mitochondrial DNA replication after 14 days. The following applies: read-out: MTC50.
Where [13] appears, read: Human immunodeficiency virus 1, 3B, MT2, 120 h.

By clearance is commonly meant the volume of plasma or blood freed of the substance per unit of time. A lower clearance goes with a low capacity for elimination. Broadly, the bioavailability is dose-corrected exposure relative to a reference, in per cent. A lower bioavailability goes with poor availability. In data set [1], `CC(C)OC(=O)[C@H](C)N[P@](=O)(CO[C@H](C)Cn1cnc2c(N)ncnc21)Oc1ccccc1` [TENOFOVIR ALAFENAMIDE] gave a clearance at 24 h of 37.2 mL/min/kg. The molecule also yielded a bioavailability in [2] of 21%.

In general, EC50 refers to the concentration needed to bring the measured effect to its halfway point. By half-life is commonly meant how long it takes for the measured level to halve. The molecule `C[C@H](NP(=O)(CO[C@@H]1C=C(F)[C@H](n2cnc3c(N)ncnc32)O1)Oc1ccccc1)C(=O)OC1CCC1` (stereo in doubt; 18r(A)) [(2S)-CYCLOBUTYL 2-((((2R,5R)-5-(6-AMINO-9H-PURIN-9-YL)-4-FLUORO-2,5-DIHYDROFURAN-2-YLOXY)METHYL)(PHENOXY)PHOSPHORYLAMINO)PROPANOATE (ENANTIOMERIC MIX)] registered a t1/2 in data set [3] (s9, 2 µM, 2 µM) of 0.533 h. In addition, the EC50 in data set [4] (mt2) is greater than 45 nM. The Activity in the data set on PBMC came out at 3.2 pmol/min; in data set [7] it was 2527 pmol/min. In [5], this molecule showed a bioavailability of 9.8%. In [6] (t1/2), this molecule showed a half-life at 2 µM of 2.33 h.

Broadly, the share remaining is what is left of the initial amount, in per cent. Take `CCCCOC(=O)[C@H](C)NP(=O)(CO[C@@H]1C=C(F)[C@H](n2cnc3c(N)ncnc32)O1)N[C@@H](C)C(=O)OCCCC`: the fraction remaining at 1 h in the data set listed under Homo sapiens is 96%; in data set [9], 100%. The EC50 in data set [4] (setting [13]) was found to be 68 nM. Also, the Activity amounted to 18 pmol/min in the data set on PBMC and 17355 pmol/min in data set [7]. This molecule also displayed a CC50 at 120 h in data set [8] of 51000 nM. The clearance at 24 h in data set [1] is 53.7 mL/min/kg. In data set [6], this molecule displayed a half-life at 2 µM of 0.8 h.

As for `CC(C)COC(=O)[C@H](Cc1ccccc1)NP(=O)(CO[C@@H]1C=C(F)[C@H](n2cnc3c(N)ncnc32)O1)Oc1ccccc1` (stereo partly specified), the half-life at 2 µM in data set [3] is 0.138 h; in [6] (t1/2), 0.467 h. In [4] (setting [13]), the EC50 worked out at 6 nM. In addition, the results for the Activity (with PBMC; in data set [7]) were 31 pmol/min and 29655 pmol/min, respectively. In data set [8], the CC50 at 120 h amounted to 38300 nM. In data set [1], this molecule gave a clearance at 24 h of 61.7 mL/min/kg. Also, the bioavailability in [2] was 2.6%.

Turning to `C[C@H](NP(=O)(CO[C@@H]1C=C(F)[C@H](n2cnc3c(N)ncnc32)O1)Oc1ccccc1)C(=O)OC1CCC1` (stereo in doubt; 18r) [(2S)-CYCLOBUTYL 2-((((2R,5R)-5-(6-AMINO-9H-PURIN-9-YL)-4-FLUORO-2,5-DIHYDROFURAN-2-YLOXY)METHYL)(PHENOXY)PHOSPHORYLAMINO)PROPANOATE (ENANTIOMERIC MIX)], the half-life at 2 µM in data set [3] amounted to 0.417 h; in data set [10] it was 2.03 h; in data set [11], 1.63 h. In addition, the EC50 in data set [4] (mt2) stood at 36 nM. For the same molecule, the Activity with PBMC is on record as 7.7 pmol/min; in data set [7], 18150 pmol/min. For the same molecule, the CC50 at 120 h in data set [8] turned out to be 57000 nM. For the same molecule, in [1], the clearance at 24 h was 46 mL/min/kg. This molecule also displayed a t1/2 in data set [6] of 1.67 h.

Consider `C[C@H](Cn1cnc2c(N)ncnc21)OCP(=O)(O)O` [TENOFOVIR ANHYDROUS], for which the CC50 at 336 h in data set [12] came to 3600 nM. Also, the EC50 in [4] (setting [13]) was determined as 13 nM. This molecule returned a CC50 at 120 h in data set [8] greater than 50000 nM.

With `CC(C)OC(=O)[C@H](C)NP(=O)(CO[C@@H]1C=C(F)[C@H](n2cnc3c(N)ncnc32)O1)Oc1ccccc1` (stereo in doubt; 24) [(2S)-ISOPROPYL 2-(((2R,5R)-5-(6-AMINO-9H-PURIN-9-YL)-4-FLUORO-2,5-DIHYDROFURAN-2-YLOXY)(PHENOXY)PHOSPHORYLAMINO)PROPANOATE (ENANTIOMERIC MIX)], the half-life at 2 µM in data set [3] came to 0.25 h; in data set [10], 1.77 h; in data set [11], 2.65 h. Also, the 50% effective concentration (EC50) in data set [4] (mt2) came out at 9.2 nM. Further, the Activity in the data set with PBMC is recorded as 20 pmol/min; in data set [7] it was 35000 pmol/min. The CC50 at 120 h in data set [8] was determined as 139000 nM. This molecule had a t1/2 in data set [6] of 1.72 h.

For the molecule `CCCCOC(=O)[C@H](CC)NP(=O)(CO[C@@H]1C=C(F)[C@H](n2cnc3c(N)ncnc32)O1)N[C@@H](CC)C(=O)OCCCC`, the share remaining at 1 h was determined as 99% in the data set listed under Homo sapiens (Stability) and 100% in data set [9] (Stability). Also, the concentration giving a half-maximal response (EC50) in [4] (setting [13]) was found to be 90 nM. Moreover, the Activity stood at 1.3 pmol/min with PBMC and 1872 pmol/min in data set [7]. This molecule returned a CC50 at 120 h in [8] greater than 100000 nM. The molecule also showed a half-life at 2 µM in data set [6] (t1/2) of 1.22 h.
